Where two headings read alike, the source gives them in different places.
Columns and labels:
[1] = target: EGFR (Homo sapiens, UniProt P00533); experiment: EGF receptor phosphorylation in A431 cells
[2] = test system: GPVI; experiment: GPVI platelet aggregation
[3] = test system: human platelet-mediated thrombus formation; experiment: In vivo human thrombus formation in VWF HA1 mice (laser injury); details: human platelets preincubated with inhibitor, laser-induced injury
[4] = test system: hepatocytes; experiment: In vitro metabolism in hepatocytes with 14C-labeled drug; type: in vitro ADME, mouse, rat, dog, rabbit, monkey, and human
[5] = target: T1, BTK (Mus musculus, UniProt P35991); experiment: Molecular probe assay of BTK occupancy in MDSCs of PDA mice; type: in vivo; details: 15 mg/kg BID; granulocytic and monocytic MDSC compartments; Day 8, 4 hours post dose
T1 construct: MDSCs were purified from tumor bearing PDA mice; endogenous in cells; host or cells: granulocytic and monocytic MDSCs from PDA mice dosed in vivo
T1 sequence (P35991 whole entry): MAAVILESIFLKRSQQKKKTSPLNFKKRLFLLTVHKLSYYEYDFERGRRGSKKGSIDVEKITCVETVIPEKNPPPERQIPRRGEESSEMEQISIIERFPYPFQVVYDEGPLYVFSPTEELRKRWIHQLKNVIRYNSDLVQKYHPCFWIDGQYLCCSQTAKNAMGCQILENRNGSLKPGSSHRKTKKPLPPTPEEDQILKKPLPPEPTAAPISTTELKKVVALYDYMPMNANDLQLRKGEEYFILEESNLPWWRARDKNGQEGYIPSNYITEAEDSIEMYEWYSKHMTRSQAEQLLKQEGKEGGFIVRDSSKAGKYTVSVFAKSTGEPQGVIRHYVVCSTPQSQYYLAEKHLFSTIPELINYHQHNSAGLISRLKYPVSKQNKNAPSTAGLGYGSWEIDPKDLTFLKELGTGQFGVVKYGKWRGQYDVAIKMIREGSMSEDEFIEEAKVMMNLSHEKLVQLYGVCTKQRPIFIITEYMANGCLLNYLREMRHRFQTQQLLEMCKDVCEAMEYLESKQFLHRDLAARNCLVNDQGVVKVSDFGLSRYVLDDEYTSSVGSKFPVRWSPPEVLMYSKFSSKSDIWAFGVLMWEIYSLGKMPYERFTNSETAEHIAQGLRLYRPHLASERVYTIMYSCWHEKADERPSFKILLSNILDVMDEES
From the text: A molecular probe assay was used to calculate the percent irreversible occupancy of total BTK.

[6] = test system: CD8^+ T cells; experiment: IFN-γ level measurements for CD8+ T cell function; type: cell-based; details: relative to vehicle
[7] = test system: GPVI
[8] = Glutathione binding and depletion in vitro; type: in vitro ADME
[9] = test system: CD8^+ T cells; experiment: Cytotoxicity assay for CD8+ T cell function; type: cell-based; details: relative to vehicle
[10] = test system: NK cells; experiment: Rituximab ADCC mediated by NK cells; type: cell-based
[11] = Metabolism in plasma, bile, and urine; type: in vivo; details: rats, dogs, and monkeys; preliminary evaluations
[12] = test system: B cell receptor; experiment: Whole blood B cell receptor signalling assay (CD69 on CD19+ B cells); type: cell-based; details: whole blood of four healthy donors, 2 hours with compound, anti-human IgD 10 μg/mL for 18 hours, read-out: EC50, CD69 on gated CD19+ B cells
[13] = target: CYP3A4 (Homo sapiens, UniProt P08684); experiment: Loss of parent drug as catalyzed by CYPs; type: in vitro ADME; details: in vitro
Chain of CYP3A4 (P08684 whole entry): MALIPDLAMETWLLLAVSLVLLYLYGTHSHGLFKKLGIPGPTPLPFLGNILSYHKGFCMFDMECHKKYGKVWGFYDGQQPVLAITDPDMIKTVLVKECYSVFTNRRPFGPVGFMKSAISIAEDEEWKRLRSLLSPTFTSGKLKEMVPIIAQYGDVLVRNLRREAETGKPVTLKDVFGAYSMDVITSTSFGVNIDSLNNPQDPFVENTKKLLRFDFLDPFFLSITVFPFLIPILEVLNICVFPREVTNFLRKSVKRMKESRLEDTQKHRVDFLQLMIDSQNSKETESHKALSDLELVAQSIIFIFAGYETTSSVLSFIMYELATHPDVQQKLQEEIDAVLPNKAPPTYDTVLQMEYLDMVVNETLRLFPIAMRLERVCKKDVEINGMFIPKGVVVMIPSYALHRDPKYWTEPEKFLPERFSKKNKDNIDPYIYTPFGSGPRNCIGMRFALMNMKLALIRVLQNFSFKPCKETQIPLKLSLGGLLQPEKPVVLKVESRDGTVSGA

[14] = test system: BCR activation markers CD69 and CD86; experiment: In vivo potency, BCR activation markers after oral gavage; details: mice, 3 hours post-dose, BCR stimulated with IgM
Method: Mice were gavaged at increasing drug concentration and sacrificed at one time point (3 hours post-dose). BCR is stimulated with IgM and the expression of activation markers CD69 and CD86 are monitored by flow cytometry to determine ECovalues.
CD86 and CD69 are cell surface proteins that are BCR activation markers. […] BCR was stimulated with IgM and the expression of activation marker CD69 and CD86 are monitored by flow cytometry to determine EC50 values.

[15] = test system: KrasLA2 non-small cell lung cancer (NSCLC) model; experiment: KrasLA2 genetic tumor model of NSCLC; type: in vivo, mice; details: 15 mg/kg
From the text: The model is designed to have sporadic expression in single cells of G12D mutant Kras off its own promoter triggered by spontaneous intrachromosomal recombination. Johnson, et al. Nature 2001, 410, 1111-16. While the mutant Kras protein is expressed in a few cells in all tissues, tumor development is seen only in the lung at high penetrance.

[16] = test system: 80 known pharmacologic targets such as G-protein-coupled receptors, nuclear receptors, proteases, and ion channels; experiment: Binding assays on 80 known pharmacologic targets; details: screened at 10 μM
[17] = test system: NK cells; experiment: NK cell degranulation/ADCC whole blood assay with obinutuzumab; type: cell-based, human; details: 1 hour pretreatment, MEC-1 opsonised with obinutuzumab 1 μg/mL, 4 hours
Method: Degranulation in whole blood was performed as follows. […] Exponentially growing cells were used. On the day of the experiment, 8 mL of blood was drawn from a normal volunteer into a test tube containing desirudin to obtain a final concentration of 50 μg/mL. A white blood cell (WBC) count of whole blood was performed. […] The ibrutinib control and two blinded BTK inhibitors were diluted in X-VIVO 15 serum-free hematopoietic cell medium (Lonza Group, Ltd.) to concentrations of 200 μM, 20 μM and 2 μM. 170 μL aliquots of unmanipulated whole blood were incubated with 10 μL BTK inhibitors or X-VIVO 15 medium for one hour into a plate. […] The samples were placed in a 5% CO2 incubator for 4 hours at 37° C.
After 4 hours, the samples were mixed gently and 50 μL aliquots were removed from each well and placed in fluorescence-activated cell sorting (FACS) test tubes. A 20 μL aliquot of anti-CD56-APC antibody and anti-CD107a-PE antibody was added. The samples were incubated for 20 minutes at room temperature in the dark. An aliquot of 2 mL of FACS lysing solution (BD Biosceinces) was added. The samples were again incubated for 5 minutes, and then centrifuged at 2000 rpm for 5 minutes. Supernatant was discarded and the cell pellet was resuspended in 500 μL of PBS. The samples were analyzed on the flow cytometer for CD107a^+ NK cells (CD56^+).

[18] = test system: CYP enzymes; experiment: Nonclinical CYP interaction studies; type: in vitro ADME
[19] = within the tested dose range (through 840 mg); cited from earlier work

Chain of EGFR (P00533 25-1210): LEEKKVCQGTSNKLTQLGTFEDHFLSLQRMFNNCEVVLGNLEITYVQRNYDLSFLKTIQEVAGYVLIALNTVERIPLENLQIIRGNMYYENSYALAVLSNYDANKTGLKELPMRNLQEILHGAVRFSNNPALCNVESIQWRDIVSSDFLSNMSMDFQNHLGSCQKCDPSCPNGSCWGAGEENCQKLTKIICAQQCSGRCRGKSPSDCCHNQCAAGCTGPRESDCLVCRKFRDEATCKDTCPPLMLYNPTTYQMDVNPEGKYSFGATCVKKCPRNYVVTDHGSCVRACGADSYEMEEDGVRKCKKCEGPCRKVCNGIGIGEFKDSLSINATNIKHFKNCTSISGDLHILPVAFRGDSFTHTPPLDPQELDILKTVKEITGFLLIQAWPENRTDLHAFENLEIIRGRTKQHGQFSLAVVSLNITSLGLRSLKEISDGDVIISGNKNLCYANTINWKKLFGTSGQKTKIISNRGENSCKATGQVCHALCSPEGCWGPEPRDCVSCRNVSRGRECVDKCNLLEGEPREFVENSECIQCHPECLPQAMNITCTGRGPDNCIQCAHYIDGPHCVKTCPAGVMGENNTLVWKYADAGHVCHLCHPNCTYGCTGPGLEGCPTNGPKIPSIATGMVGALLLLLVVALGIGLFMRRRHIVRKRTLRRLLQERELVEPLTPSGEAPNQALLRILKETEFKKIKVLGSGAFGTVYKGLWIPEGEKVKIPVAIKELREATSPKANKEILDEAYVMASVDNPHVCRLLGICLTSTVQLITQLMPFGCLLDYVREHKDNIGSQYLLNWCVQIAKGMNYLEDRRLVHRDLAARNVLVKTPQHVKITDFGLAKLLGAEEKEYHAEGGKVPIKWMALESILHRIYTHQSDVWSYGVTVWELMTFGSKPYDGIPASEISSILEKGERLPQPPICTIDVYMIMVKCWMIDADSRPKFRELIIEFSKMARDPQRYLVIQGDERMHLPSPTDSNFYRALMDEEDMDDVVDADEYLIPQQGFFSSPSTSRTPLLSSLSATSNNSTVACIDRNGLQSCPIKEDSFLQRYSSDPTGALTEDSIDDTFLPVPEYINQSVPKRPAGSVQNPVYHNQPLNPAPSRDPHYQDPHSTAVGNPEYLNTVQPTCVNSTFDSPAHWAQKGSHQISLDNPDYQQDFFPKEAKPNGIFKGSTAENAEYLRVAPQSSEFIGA

CC#CC(=O)N1CCC[C@H]1c1nc(-c2ccc(C(=O)Nc3ccccn3)cc2)c2c(N)nccn12 [Formula (2), (S)-4-(8-amino-3-(1-(but-2-ynoyl)pyrrolidin-2-yl)imidazo[1,5-a]pyrazin-1-yl)-N-(pyridin-2-yl)benzamide]
inhibition of in vitro EGFR phosphorylation ([1]; 10 μM, A431 human epidermoid cancer cell line): no inhibition
inhibition at 10 µM ([1]; A-431, read-out: EGF-induced p-EGFR inhibition): 7%
IC50 ([2]; read-out: IC50, GPVI platelet aggregation, purified human platelets, Convulxin (CVX)): 1150 nM
effect on human platelet-mediated thrombus formation [3]: no significant effect
unique human metabolite ([4]; hepatocytes of six species): No unique human metabolite was identified
metabolites in hepatocytes ([4]; mouse, rat, dog, rabbit, monkey, and human hepatocytes, 14C-labeled drug): two mono-oxidized metabolites and a glutathione conjugate
irreversible occupancy of total BTK in MDSCs [5]: Complete BTK occupancy
CD8+ T cell function as measured by IFN-γ level [6]: no effect
inhibition of GPVI platelet aggregation [7]: does not
glutathione binding and depletion [8]: binds to glutathione but does not deplete glutathione
CD8+ T cell function as measured by % cytotoxicity [9]: no effect
antagonism of rituximab ADCC effects mediated by NK cells [10]: does not antagonize
metabolic processes in plasma, bile, and urine [11]: metabolic processes of oxidation, glutathione binding, and hydrolysis
EC50 [12]: 8.2 nM
CYP responsible for metabolism [13]: metabolized by CYP3A4
in vivo potency at inhibiting expression of activation markers CD69 and CD86 [14]: more potent at inhibiting expression of activation makers than Formula (10) (ibrutinib)
effects on TAMs, MDSCs, Tregs, and CD8+ cells [15]: consistent with suppression of the solid tumor microenviroment
number of tumors [15]: fewer overall tumors
tumor volumes versus vehicle [15]: significant decrease
activity in binding assays with 80 known pharmacologic targets [16]: significant activity only against the A3 adenosine receptor
effect on CD56+/CD107a+ NK cells, obinutuzumab-stimulated degranulation [17]: minimal effect
potential for CYP-mediated drug-drug interactions [18]: very unlikely to cause clinical drug-drug interactions

C=CC(=O)N1CCC[C@@H](n2nc(-c3ccc(Oc4ccccc4)cc3)c3c(N)ncnc32)C1 [Formula (10), 1-[(3R)-3-[4-amino-3-(4-phenoxyphenyl)-1H-pyrazolo[3,4-d]pyrimidin-1-yl]piperidin-1-yl]prop-2-en-1-one, reference compound]
inhibition of GPVI platelet aggregation ([2]; human platelets, CVX-induced): significantly inhibits
CD8+ T cell function as measured by IFN-γ level [6]: affects CD8^+ T cell function
CD8+ T cell function as measured by % cytotoxicity [9]: affects CD8^+ T cell function
antagonism of rituximab ADCC effects mediated by NK cells [10]: undesirably antagonizes
EC50 [12]: 6.1 nM
maximum tolerated dose (MTD) [19]: No maximum tolerated dose (MTD) was apparent

C=CC(=O)Nc1cccc(Nc2nc(Nc3ccc(OCCOC)cc3)ncc2F)c1 [Formula (17), N-(3-((5-fluoro-2-((4-(2-methoxyethoxy)phenyl)amino)pyrimidin-4-yl)amino)phenyl)acrylamide, reference compound]
effect on human platelet-mediated thrombus formation [3]: effect similar to Formula (10) (ibrutinib)
EC50 [12]: 121 nM

From patent US11154554B2, “Therapeutic combinations of a MEK inhibitor and a BTK inhibitor” (Acerta Pharma B.V., priority 2015, dated 2021)
